Assays:
[1] = molecular target: Serine/threonine-protein kinase Nek7 (Homo sapiens) (UniProt Q8TDX7); test: Inhibition of human recombinant NEK7 at 500 nM related to control ULK1
[2] = molecular target: T1, NUAK family SNF1-like kinase 2 (Homo sapiens) (UniProt Q9H093); test: Inhibition of human recombinant NuaK2 at 500 nM in presence of ATP by radiometric assay relative to control
T1 sequence (whole entry): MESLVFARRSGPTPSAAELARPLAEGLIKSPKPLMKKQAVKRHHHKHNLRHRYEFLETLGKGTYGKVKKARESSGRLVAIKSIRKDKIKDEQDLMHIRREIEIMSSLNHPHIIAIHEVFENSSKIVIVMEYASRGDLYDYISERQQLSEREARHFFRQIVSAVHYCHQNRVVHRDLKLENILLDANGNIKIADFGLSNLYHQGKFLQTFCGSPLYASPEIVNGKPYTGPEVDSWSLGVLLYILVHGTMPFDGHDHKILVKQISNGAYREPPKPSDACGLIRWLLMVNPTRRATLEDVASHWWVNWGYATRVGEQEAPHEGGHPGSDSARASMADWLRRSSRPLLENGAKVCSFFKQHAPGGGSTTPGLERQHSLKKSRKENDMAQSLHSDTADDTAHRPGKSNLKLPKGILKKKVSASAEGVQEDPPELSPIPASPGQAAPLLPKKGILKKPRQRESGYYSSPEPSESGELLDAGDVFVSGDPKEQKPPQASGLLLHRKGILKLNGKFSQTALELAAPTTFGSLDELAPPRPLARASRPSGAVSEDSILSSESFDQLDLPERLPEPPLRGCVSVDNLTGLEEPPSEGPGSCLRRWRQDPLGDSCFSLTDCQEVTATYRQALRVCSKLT

Homo sapiens = organism: Homo sapiens; test: Inhibition of human recombinant ABL at 500 nM related to control ULK1
[3] = molecular target: Vascular endothelial growth factor receptor 3 (Homo sapiens) (UniProt P35916); test: Inhibition of human recombinant FLT4 at 500 nM related to control ULK1
[4] = molecular target: Serine/threonine-protein kinase MRCK alpha (Homo sapiens) (UniProt Q5VT25); test: Inhibition of human recombinant MRCKa at 500 nM in presence of ATP by radiometric assay relative to control
[5] = molecular target: Serine/threonine-protein kinase PLK2 (Homo sapiens) (UniProt Q9NYY3); test: Inhibition of human recombinant PLK2 at 500 nM related to control ULK1
[6] = molecular target: Serine/threonine-protein kinase D2 (Homo sapiens) (UniProt Q9BZL6); test: Inhibition of human recombinant PKD2 at 15 nM related to control ULK1
[7] = molecular target: T2, Serine/threonine-protein kinase Nek2 (Homo sapiens) (UniProt P51955); test: Inhibition of human recombinant NEK2 at 15 nM in presence of ATP by radiometric assay relative to control
T2 sequence (whole entry): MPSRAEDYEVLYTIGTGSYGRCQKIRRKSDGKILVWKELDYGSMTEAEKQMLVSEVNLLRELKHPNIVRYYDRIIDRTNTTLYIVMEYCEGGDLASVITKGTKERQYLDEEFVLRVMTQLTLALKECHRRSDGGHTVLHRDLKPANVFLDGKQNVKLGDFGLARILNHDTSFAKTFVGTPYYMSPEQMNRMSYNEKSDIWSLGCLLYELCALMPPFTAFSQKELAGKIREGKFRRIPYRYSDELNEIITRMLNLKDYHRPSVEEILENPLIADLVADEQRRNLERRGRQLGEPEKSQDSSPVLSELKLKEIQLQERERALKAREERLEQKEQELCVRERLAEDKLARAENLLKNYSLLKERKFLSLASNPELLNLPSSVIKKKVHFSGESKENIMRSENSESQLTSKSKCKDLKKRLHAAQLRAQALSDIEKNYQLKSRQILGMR

[8] = molecular target: Serine/threonine-protein kinase VRK2 (Homo sapiens) (UniProt Q86Y07); test: Inhibition of human recombinant VRK2 at 15 nM in presence of ATP by radiometric assay relative to control
[9] = molecular target: T3, SNF-related serine/threonine-protein kinase (Homo sapiens) (UniProt Q9NRH2); test: Inhibition of human recombinant SNRK at 15 nM in presence of ATP by radiometric assay relative to control
T3 sequence (whole entry): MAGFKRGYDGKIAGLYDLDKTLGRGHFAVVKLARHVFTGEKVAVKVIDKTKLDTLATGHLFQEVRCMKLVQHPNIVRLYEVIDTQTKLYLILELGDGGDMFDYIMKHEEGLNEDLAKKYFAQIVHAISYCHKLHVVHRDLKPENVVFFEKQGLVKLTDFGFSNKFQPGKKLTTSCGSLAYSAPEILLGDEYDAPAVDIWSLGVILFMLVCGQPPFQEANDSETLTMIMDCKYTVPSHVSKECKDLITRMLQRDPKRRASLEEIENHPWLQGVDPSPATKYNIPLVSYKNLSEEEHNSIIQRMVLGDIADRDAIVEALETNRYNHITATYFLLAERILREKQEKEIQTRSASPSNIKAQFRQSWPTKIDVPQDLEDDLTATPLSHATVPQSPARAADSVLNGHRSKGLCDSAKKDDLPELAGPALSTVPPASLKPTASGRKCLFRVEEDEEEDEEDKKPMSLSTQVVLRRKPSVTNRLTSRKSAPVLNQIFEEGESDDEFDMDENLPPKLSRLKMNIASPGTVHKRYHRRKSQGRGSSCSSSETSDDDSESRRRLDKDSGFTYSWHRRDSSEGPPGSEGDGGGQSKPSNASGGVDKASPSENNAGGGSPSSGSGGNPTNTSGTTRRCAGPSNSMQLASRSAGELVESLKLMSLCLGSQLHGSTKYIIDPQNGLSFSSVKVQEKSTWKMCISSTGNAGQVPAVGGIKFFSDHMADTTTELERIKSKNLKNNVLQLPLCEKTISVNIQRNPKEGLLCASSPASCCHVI

[10] = molecular target: MAP kinase-activated protein kinase 3 (Homo sapiens) (UniProt Q16644); test: Inhibition of human recombinant MAPKAPK3 at 40 nM related to control ULK1
[11] = molecular target: Misshapen-like kinase 1 (Homo sapiens) (UniProt Q8N4C8); test: Inhibition of human recombinant MINK at 40 nM in presence of ATP by radiometric assay relative to control
[12] = molecular target: Serine/threonine-protein kinase PRP4 homolog (Homo sapiens) (UniProt Q13523); test: Inhibition of human recombinant PRP4 at 40 nM related to control ULK1
Chain of Serine/threonine-protein kinase PRP4 homolog (Homo sapiens) (Q13523 whole entry): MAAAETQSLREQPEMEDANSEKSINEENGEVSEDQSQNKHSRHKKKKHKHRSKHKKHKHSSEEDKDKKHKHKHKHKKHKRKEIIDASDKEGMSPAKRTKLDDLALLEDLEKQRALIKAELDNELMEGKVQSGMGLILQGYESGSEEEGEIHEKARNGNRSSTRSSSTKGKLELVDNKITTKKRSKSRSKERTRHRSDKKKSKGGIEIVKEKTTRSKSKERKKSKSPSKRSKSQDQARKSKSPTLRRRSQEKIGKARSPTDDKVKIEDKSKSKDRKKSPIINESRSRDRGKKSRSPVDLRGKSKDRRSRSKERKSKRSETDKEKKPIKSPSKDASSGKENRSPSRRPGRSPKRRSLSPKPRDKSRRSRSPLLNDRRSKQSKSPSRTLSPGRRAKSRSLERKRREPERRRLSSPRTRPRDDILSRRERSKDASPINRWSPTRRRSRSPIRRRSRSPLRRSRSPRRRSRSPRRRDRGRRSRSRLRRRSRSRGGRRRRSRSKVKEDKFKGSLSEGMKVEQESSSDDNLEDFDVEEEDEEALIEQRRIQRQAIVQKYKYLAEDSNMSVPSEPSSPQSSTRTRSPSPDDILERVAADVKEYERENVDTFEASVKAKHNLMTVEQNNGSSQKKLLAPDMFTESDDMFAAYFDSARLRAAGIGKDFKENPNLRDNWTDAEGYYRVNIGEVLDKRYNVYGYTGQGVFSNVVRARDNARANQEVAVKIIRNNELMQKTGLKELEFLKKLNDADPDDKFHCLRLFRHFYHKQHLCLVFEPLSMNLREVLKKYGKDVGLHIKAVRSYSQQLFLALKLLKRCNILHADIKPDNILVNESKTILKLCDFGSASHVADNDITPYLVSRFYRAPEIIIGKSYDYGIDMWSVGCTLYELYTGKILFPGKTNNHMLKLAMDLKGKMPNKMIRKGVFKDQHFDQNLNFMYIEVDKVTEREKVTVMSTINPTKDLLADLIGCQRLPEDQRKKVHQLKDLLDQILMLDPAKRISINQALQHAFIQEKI

Chain of Serine/threonine-protein kinase Nek7 (Homo sapiens) (Q8TDX7 whole entry, looked up): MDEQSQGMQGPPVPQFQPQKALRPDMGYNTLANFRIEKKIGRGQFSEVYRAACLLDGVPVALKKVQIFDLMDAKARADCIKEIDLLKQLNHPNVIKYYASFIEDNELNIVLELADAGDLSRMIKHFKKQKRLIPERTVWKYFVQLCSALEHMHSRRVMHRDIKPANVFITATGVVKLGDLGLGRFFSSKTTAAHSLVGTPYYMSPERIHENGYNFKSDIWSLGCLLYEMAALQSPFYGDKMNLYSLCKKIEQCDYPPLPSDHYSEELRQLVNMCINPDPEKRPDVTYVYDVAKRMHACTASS
Chain of Vascular endothelial growth factor receptor 3 (Homo sapiens) (P35916 whole entry): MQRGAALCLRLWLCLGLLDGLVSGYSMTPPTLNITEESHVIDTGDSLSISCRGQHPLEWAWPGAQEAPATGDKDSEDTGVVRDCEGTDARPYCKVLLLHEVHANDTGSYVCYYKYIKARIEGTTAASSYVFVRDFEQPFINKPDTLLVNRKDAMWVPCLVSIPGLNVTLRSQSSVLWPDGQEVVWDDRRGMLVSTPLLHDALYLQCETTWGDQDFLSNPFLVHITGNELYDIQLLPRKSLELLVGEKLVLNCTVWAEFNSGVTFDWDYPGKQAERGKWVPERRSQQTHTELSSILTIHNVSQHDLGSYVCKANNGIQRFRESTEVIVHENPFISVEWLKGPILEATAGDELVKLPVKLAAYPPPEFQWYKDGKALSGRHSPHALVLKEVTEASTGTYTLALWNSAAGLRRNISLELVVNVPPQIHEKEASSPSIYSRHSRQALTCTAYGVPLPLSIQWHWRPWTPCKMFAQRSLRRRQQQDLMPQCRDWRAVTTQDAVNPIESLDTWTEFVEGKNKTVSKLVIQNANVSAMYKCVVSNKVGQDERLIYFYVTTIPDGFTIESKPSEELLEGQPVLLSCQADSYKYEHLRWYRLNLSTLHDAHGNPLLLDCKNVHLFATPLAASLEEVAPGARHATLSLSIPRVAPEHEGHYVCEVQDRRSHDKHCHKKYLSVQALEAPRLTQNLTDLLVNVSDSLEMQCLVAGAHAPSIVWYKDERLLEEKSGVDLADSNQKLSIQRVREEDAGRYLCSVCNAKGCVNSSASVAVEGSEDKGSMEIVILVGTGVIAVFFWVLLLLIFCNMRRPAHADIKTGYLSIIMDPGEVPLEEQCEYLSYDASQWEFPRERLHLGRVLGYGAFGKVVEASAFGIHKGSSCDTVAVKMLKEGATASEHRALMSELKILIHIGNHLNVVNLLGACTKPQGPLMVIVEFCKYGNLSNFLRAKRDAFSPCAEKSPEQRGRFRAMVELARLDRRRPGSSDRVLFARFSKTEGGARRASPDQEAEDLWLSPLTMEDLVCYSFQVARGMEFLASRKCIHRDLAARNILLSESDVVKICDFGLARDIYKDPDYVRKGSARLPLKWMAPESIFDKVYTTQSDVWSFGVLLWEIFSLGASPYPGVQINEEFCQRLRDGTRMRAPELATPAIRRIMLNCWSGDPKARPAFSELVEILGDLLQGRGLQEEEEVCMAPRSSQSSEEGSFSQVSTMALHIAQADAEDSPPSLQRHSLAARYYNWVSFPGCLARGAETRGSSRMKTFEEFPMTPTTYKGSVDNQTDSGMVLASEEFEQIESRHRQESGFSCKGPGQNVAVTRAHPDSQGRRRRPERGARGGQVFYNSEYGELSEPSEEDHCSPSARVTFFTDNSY
Chain of Misshapen-like kinase 1 (Homo sapiens) (Q8N4C8 whole entry, looked up): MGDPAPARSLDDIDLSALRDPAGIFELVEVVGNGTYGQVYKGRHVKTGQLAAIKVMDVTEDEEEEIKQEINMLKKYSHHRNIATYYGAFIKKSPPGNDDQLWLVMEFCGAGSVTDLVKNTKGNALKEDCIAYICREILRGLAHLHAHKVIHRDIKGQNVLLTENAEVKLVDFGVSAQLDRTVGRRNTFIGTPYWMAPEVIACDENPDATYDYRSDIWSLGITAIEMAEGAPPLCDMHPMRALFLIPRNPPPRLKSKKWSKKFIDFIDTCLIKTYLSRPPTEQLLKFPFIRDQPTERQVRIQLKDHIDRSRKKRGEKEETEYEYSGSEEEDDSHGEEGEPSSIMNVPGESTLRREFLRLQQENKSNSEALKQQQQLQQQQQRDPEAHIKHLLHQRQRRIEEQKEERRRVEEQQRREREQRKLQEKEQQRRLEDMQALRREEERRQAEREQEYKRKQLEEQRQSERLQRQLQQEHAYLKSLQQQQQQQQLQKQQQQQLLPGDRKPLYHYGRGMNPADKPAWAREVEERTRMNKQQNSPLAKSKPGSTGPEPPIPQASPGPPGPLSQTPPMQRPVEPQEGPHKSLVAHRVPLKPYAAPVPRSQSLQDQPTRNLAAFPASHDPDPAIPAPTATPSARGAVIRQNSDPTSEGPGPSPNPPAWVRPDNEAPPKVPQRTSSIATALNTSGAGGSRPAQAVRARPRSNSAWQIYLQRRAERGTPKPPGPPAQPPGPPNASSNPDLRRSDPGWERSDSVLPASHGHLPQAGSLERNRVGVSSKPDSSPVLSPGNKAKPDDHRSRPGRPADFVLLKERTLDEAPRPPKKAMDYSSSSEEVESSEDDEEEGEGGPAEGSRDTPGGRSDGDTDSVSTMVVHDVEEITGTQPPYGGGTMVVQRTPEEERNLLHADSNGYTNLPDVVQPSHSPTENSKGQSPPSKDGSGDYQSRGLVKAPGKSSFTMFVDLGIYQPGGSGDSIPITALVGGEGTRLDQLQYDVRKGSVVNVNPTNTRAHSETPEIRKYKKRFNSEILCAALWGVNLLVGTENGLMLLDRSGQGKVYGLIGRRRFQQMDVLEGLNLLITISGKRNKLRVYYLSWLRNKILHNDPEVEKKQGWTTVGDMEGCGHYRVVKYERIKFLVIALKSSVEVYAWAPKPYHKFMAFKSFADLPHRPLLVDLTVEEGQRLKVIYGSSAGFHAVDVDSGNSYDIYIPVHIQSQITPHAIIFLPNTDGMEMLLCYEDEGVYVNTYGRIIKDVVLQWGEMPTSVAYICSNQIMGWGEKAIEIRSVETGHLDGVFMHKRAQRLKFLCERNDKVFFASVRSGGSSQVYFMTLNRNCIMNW
Chain of Serine/threonine-protein kinase PLK2 (Homo sapiens) (Q9NYY3 whole entry, looked up): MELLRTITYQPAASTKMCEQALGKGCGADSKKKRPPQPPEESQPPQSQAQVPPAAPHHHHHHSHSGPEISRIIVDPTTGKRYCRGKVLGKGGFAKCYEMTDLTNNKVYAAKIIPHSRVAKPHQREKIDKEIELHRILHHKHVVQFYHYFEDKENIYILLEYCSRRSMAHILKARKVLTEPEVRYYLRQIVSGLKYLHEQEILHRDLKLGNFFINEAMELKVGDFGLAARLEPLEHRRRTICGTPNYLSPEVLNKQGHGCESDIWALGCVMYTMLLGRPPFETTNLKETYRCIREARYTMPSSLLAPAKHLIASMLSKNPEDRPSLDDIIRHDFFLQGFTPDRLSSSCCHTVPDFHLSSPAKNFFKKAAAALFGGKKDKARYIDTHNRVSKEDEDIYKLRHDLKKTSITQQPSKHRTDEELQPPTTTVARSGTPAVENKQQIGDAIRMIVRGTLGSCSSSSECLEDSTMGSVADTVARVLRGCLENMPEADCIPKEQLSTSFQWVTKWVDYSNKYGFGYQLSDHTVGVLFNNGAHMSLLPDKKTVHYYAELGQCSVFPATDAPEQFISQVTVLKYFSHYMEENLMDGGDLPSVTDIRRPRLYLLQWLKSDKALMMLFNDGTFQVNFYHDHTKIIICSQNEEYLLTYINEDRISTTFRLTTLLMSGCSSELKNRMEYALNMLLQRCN
Chain of MAP kinase-activated protein kinase 3 (Homo sapiens) (Q16644 whole entry, looked up): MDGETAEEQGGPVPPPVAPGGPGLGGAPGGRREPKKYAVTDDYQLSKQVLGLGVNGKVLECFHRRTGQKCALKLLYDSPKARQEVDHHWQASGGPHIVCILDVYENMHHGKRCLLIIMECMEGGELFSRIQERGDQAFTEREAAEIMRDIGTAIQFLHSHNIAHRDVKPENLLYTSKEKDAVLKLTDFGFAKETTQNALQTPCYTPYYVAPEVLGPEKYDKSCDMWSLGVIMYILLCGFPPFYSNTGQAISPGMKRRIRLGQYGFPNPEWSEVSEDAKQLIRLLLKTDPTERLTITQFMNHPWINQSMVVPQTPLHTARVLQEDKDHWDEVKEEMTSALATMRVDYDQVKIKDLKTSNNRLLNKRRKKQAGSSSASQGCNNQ

## CNC(=O)c1ccccc1Oc1nc(Nc2cc(OC)c(OC)c(OC)c2)ncc1Br
[1]
  fold change (FC): 0
[2]
  inhibition: 64%
Homo sapiens
  fold change (FC): 0.19
[3]
  fold change (FC): 0.31
[4]
  inhibition: 7%
[5]
  fold change (FC): 0.05

## CC(C)[C@H](NC(=O)c1cc(-c2cnn3cc(-c4ccc(OCCN5CCCCC5)cc4)cnc23)cs1)C(F)(F)F
[6]
  fold change (FC): 0
[7]
  inhibition: 12%
[8]
  inhibition: 0%
[9]
  inhibition: 8%

## O=C(N[C@@H](C1CC1)C(F)(F)F)c1cc(-c2cnn3cc(-c4ccc(F)cc4)cnc23)cs1
[10]
  fold change (FC): 0
[11]
  inhibition: 7%
[12]
  fold change (FC): 0.08

— ChEMBL document CHEMBL5653631, “A Potent and Selective ULK1 Inhibitor Suppresses Autophagy and Sensitizes Cancer Cells to Nutrient Stress” (iScience, 2018)
